Measurements from patent publication US20170348258A1, “3-Amino Benzamide Derivative Serving As B-Lactam Auxiliary Antibiotic, Preparation Method and Use Thereof” (THE HONG KONG POLYTECHNIC UNIVERSITY, priority 2014, published 2017).

Columns and labels:
[1] = tested on: B. subtilis 168 cells; assay: Effects on the morphology of B. subtilis cells; type: cell-based; conditions: for average cell length of B. subtilis: compound at half of MIC (1.56 μM F332, 0.78 μM F361), untreated 3.5±0.7 μm; for average cell length of B. subtilis / lengthening of cell length of B. subtilis versus untreated: 4 hours; for lengthening of cell length of B. subtilis versus untreated: compound at half of MIC; for filamentation of B. subtilis 168 cells: sub-lethal concentrations
Protocol: The log-phase culture of B. subtilis was tested with the two compounds with a final concentration of half of MIC value. A 1% DMSO solution was used as the control.

[2] = biological target: T1, S. aureus FtsZ (Staphylococcus aureus, UniProt P0A031); assay: Light scattering assay (FtsZ polymerization); type: biochemical; conditions: S. aureus FtsZ 12 μM, 1 mM GTP, serial dilutions of compound
T1 construct: inferred from capture on a nickel chelating column and imidazole elution; made in house; host or cells: E. coli BL21
T1 sequence (P0A031 1-390): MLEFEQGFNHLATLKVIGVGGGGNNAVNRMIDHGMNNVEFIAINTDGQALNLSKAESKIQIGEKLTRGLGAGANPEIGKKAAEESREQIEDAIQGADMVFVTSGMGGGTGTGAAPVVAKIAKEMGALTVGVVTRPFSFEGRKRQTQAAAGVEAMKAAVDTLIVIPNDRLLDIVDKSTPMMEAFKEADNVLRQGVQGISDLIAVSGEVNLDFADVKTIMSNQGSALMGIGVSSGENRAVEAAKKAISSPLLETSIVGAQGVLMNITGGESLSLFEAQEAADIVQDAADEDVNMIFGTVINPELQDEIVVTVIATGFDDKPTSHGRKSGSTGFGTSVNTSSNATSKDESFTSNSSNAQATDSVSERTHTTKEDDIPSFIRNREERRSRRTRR
Protocol: Light scattering assay was used to determine the degree of FtsZ polymerization by measuring the 90° light scattering signal using a fluorescence spectrometer (Perkin-Elmer, USA). The excitation and emission wavelengths were set to 600 nm with a slit width of 5 nm. S. aureus FtsZ (12 μM) was incubated with serial dilutions of the compounds in 50 mM MOPS buffer (pH 6.8) at 25° C. for 10 minutes. The control contained 1% DMSO only. KCl (final concentration: 50 mM) and MgCl2 (final concentration: 10 mM) were then added to the mixture. The mixture was incubated at 37° C. for 8 minutes in order to establish a baseline. A final concentration of 1 mM GTP was added and the light scattering signal was measured for 1,500 seconds. The relative light scattering signals in experimental set-up were calculated with reference to the light scattering signal in control experiment. Three independent experiments were carried out for each compound concentration.

[3] = biological target: T1, S. aureus FtsZ; assay: GTPase activity assay; type: biochemical; conditions: FtsZ 7.5 μM, GTP 500 μM, 37° C. 30 minutes
Protocol: The GTPase activity of S. aureus FtsZ was determined in a 96-well microplate using a CytoPhos™ phosphate assay Biochem Kit™ (Cytoskeleton, USA) which measured the concentration of inorganic phosphate released during the hydrolysis of GTP. Recombinant S. aureus FtsZ (7.5 μM) was incubated with serial dilutions of the compounds in 50 mM MOPS buffer (pH 6.5) at 25° C. for 10 minutes. The control contained 1% DMSO only. KCl (final concentration: 200 mM) and MgCl2 (final concentration: 5 mM) were then added to the mixture. The mixture was incubated with GTP (final concentration: 500 μM) at 37° C. for 30 minutes. The insoluble polymer was removed by centrifugation at 13,500 rpm at room temperature for 1 minute. 80 μL supernatant was transferred to a well of a 96-well microplate and incubated with 120 μL of Cytophos reagent at room temperature for 10 minutes. The inorganic phosphate in the mixture was determined by measuring the absorbance at 650 nm in a 96-well microplate reader (BioRad 680). The results from the samples were reported with reference to the control. Three independent experiments were carried out for each compound concentration.

[4] = biological target: T1, S. aureus FtsZ; assay: Transmission electron microscopy of FtsZ polymer morphology; type: biochemical; conditions: 100 μM compound, GTP 1 mM, 37° C. 15 minutes
Protocol: TEM provides a direct observation of FtsZ polymer morphology. Two promising compounds F332 and F361 were chosen for testing. S. aureus FtsZ ([…]) was incubated with the compounds at different concentrations in 50 mM MOPS buffer (pH 6.5) at 25° C. for 10 minutes. The control contained 1% DMSO only. KCl (final concentration: 50 mM) and MgCl2 (final concentration: 5 mM) were then added to the mixture. The mixture was incubated with GTP (final concentration: 1 mM) at 37° C. for 15 minutes. 10 μL reaction mixtures were applied on a glow-discharged Formvar carbon-coated copper grid (400 meshes) at 25° C. for 10 minutes. 10 μL of 0.5% phosphotungistic acid (PTA) was applied on the copper grid in order to negatively stain the proteins. The copper grid was allowed to air dry overnight.

[5] = tested on: MRSA strain USA300#757; assay: Fractional Inhibitory Concentration Index (FICI) determination; type: cell-based, S. aureus
Protocol: The bacterial strains used in this study were clinically isolated MRSA strains USA300#757 and #2960 which were obtained from our laboratory. Determination of the Fractional Inhibitory Concentration Index (FICI) was adopted by the Müller-Hinton broth (MHB) dilution method as previously described. Twelve serial two-fold dilutions of PC190723, F332 and F361 were prepared in the 96-well microplate with concentration ranging from 512 to 0.25 μg/mL. […] Lastly, the compounds and the β-lactams were mixed at a 1:1 ratio and subjected to two-fold dilution as described previously. Each microplate well contained 100 μL of MHB supplemented with compounds alone, β-lactams alone or the mixture of compounds and β-lactams. Overnight cultures of S. aureus in the Müller-Hinton broth was diluted to OD595 of 0.08-0.1 in saline and added in each of the microplate well. The plates were incubated at 37° C. for 20 h. All tests were performed in duplicate and the inhibition of bacterial growth was determined by visualization. The FICI of compounds and β-lactams were calculated as followed: FICI=(MIC of combination of compound and β-lactam/MIC of compound alone)+(MIC of combination of compound and β-lactam/MIC of β-lactam alone).

SMILES	average cell length of B. subtilis [1]	lengthening of cell length of B. subtilis versus untreated [1]	filamentation of B. subtilis 168 cells [1]	effect on light scattering signal of FtsZ assembly (polymerization) [2]	effect on GTPase activity of S. aureus FtsZ [3]	FtsZ polymer morphology (TEM) [4]	FICI with Cefotaxime [5]	FICI with Meropenem [5]	FICI with Ampicillin [5]	FICI with Cefuroxime [5]	FICI with Cloxacillin [5]
CCCCCCCCCN(C)c1ccc(F)c(C(N)=O)c1F [Compound F361, 2,6-difluoro-3-(methyl(nonyl)amino)benzamide]	21.1±1.8 μm	six-fold lengthening	cause filamentation	inhibit the light scattering of FtsZ assembly	no significant change of the GTPase activity	relatively short and straight single strand FtsZ protofilaments	0.38	1.13	–	–	–
CCCCCCCCCNc1ccc(F)c(C(N)=O)c1F [Compound F332, 2,6-difluoro-3-(nonylamino)benzamide]	11.7±4.5 μm	three-fold lengthening	cause filamentation	inhibit the light scattering of FtsZ assembly	no significant change of the GTPase activity	relatively short and straight single strand FtsZ protofilaments	0.13	1.06	0.52	0.09	1.02
